# Assay results: patent publication US9474790B2, “Stable, protracted GLP-1/glucagon receptor co-agonists for medical use” (Novo Nordisk A/S, priority 2013, dated 2016)
# Numbered stars: 1 amine (or outer) side, 2 acyl side, 3 side chain; on linkers, the order of the positions; unused ones are H or OH. Square brackets hold non-standard residues; d marks the D form. Side chains are listed from the residue outwards. Peptide text beside a SMILES is read from it. * marks the point of attachment. C18 diacid = O=C(O)CCCCCCCCCCCCCCCCC(=O)*; γGlu = O=C(O)[C@H](CCC(=O)[*:2])N[*:1]; Ac4c = NC1(C(=O)O)CCC1; Aib = CC(C)(N)C(=O)O
# Assay: Thioflavin T (ThT) fibrillation assay for physical stability
# Type: physicochemical
# Conditions: 250 μM in 10 mM HEPES buffer, pH 7.5, 37° C., shaking 960 rpm
# How it was run: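 Peptide at 250 μM in 10 mM HEPES pH 7.5 with 1 μM ThT, at 37° C with 960 rpm orbital shaking. Fluorescence (ex 444/em 485 nm) read every 20 min after 10 min pre-incubation; sigmoidal fit gives lag time (t0−2τ) and kapp (1/τ). Recovery is RP-HPLC peptide in the centrifuged, 0.22 μm-filtered supernatant as % of initial.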
row,Compound,THT assay Lag time (Ex. 76)
1,"CC(C)C[C@H](NC(=O)[C@H](Cc1ccc(O)cc1)NC(=O)[C@H](CCCCN)NC(=O)[C@H](CO)NC(=O)[C@H](CC(C)C)NC(=O)[C@H](CC(=O)O)NC(=O)[C@H](CO)NC(=O)[C@@H](NC(=O)[C@H](Cc1ccccc1)NC(=O)[C@@H](NC(=O)CNC(=O)[C@H](CCC(N)=O)NC(=O)C1(NC(=O)[C@@H](N)Cc2c[nH]cn2)CCC1)[C@@H](C)O)[C@@H](C)O)C(=O)N[C@@H](CCC(=O)O)C(=O)N[C@@H](CO)C(=O)N[C@@H](CCCCN)C(=O)N[C@@H](CCCNC(=N)N)C(=O)N[C@@H](C)C(=O)N[C@@H](CCCNC(=N)N)C(=O)N[C@@H](CCC(=O)O)C(=O)N[C@@H](Cc1ccccc1)C(=O)N[C@H](C(=O)N[C@@H](CCC(N)=O)C(=O)N[C@@H](Cc1c[nH]c2ccccc12)C(=O)N[C@@H](CC(C)C)C(=O)N[C@@H](CC(C)C)C(=O)N[C@@H](CCCCNC(=O)CC[C@H](NC(=O)CC[C@H](NC(=O)[C@H](CO)NC(=O)[C@H](CCC(=O)O)NC(=O)[C@H](CO)NC(=O)CC[C@H](NC(=O)CC[C@H](NC(=O)CCCCCCCCCCCCCCCCC(=O)O)C(=O)O)C(=O)O)C(=O)O)C(=O)O)C(=O)N[C@H](C(N)=O)[C@@H](C)O)C(C)C [Example 68, N^ε28-[(4S)-4-carboxy-4-[[(4S)-4-carboxy-4-[[(2S)-2-[[(2S)-4-carboxy-2-[[(2S)-2-[[(4S)-4-carboxy-4-[[(4S)-4-carboxy-4-(17-carboxyheptadecanoylamino)butanoyl]amino]butanoyl]amino]-3-hydroxypropanoyl]amino]butanoyl]amino]-3-hydroxypropanoyl]amino]butanoyl]amino]butanoyl]-[Acb2,Leu10,Glu15,Lys17,Arg20,Glu21,Leu27,Lys28]-Glucagon amide] (H-H[Ac4c]QGTFTSDLSKYLESKRAREFVQWLLK([γGlu-γGlu-Ser-Glu-Ser-γGlu-γGlu-C18 diacid])T-NH2; N-terminus assumed)",45 h
2,"CC(C)C[C@H](NC(=O)[C@H](Cc1ccc(O)cc1)NC(=O)[C@H](CCCCN)NC(=O)[C@H](CO)NC(=O)[C@H](CC(C)C)NC(=O)[C@H](CC(=O)O)NC(=O)[C@H](CO)NC(=O)[C@@H](NC(=O)[C@H](Cc1ccccc1)NC(=O)[C@@H](NC(=O)CNC(=O)[C@H](CCC(N)=O)NC(=O)C(C)(C)NC(=O)[C@@H](N)Cc1c[nH]cn1)[C@@H](C)O)[C@@H](C)O)C(=O)N[C@@H](CCC(=O)O)C(=O)N[C@@H](CO)C(=O)N[C@@H](CCCCN)C(=O)N[C@@H](CCCNC(=N)N)C(=O)N[C@@H](C)C(=O)N[C@@H](CCCNC(=N)N)C(=O)N[C@@H](CO)C(=O)N[C@@H](Cc1ccccc1)C(=O)N[C@H](C(=O)N[C@@H](CCC(N)=O)C(=O)N[C@@H](Cc1c[nH]c2ccccc12)C(=O)N[C@@H](CC(C)C)C(=O)N[C@@H](CC(C)C)C(=O)N[C@@H](CCCCNC(=O)CC[C@H](NC(=O)CC[C@H](NC(=O)[C@H](CO)NC(=O)[C@H](CCC(=O)O)NC(=O)[C@H](CO)NC(=O)CC[C@H](NC(=O)CC[C@H](NC(=O)CCCCCCCCCCCCCCCCC(=O)O)C(=O)O)C(=O)O)C(=O)O)C(=O)O)C(=O)N[C@H](C(N)=O)[C@@H](C)O)C(C)C [Example 69, N^ε28-[(4S)-4-carboxy-4-[[(4S)-4-carboxy-4-[[(2S)-2-[[(2S)-4-carboxy-2-[[(2S)-2-[[(4S)-4-carboxy-4-[[(4S)-4-carboxy-4-(17-carboxyheptadecanoylamino)butanoyl]amino]butanoyl]amino]-3-hydroxypropanoyl]amino]butanoyl]amino]-3-hydroxypropanoyl]amino]butanoyl]amino]butanoyl]-[Aib2,Leu10,Glu15,Lys17,Arg20,Ser21,Leu27,Lys28]-Glucagon amide] (H-H[Aib]QGTFTSDLSKYLESKRARSFVQWLLK([γGlu-γGlu-Ser-Glu-Ser-γGlu-γGlu-C18 diacid])T-NH2; N-terminus assumed)",45 h
